# According to US9073965B2, “Adiponectin receptor agonists and methods of use” (TEMPLE UNIVERSITY—OF THE COMMONWEALTH SYSTEM OF HIGHER …, priority 2011, dated 2015):
# Non-standard residues stand in square brackets, D forms with d. Residues, ends and D or L forms follow the SMILES beside them. Nva = CCC[C@H](N)C(=O)O; βAla = NCCC(=O)O
# What was measured:
# [1] = tested on: MCF-7 breast cancer cells
# Experimental: The MCF-7 breast cancer cell line was obtained from ATCC (Manassas, Va.) and routinely grown in DMEM:F12 plus 5% calf serum (Cellgro Mediatech, Manassas, Va.) at 37° C., 5% CO2. For screening experiments, MCF-7 cells were plated in 24-well plates at the concentration of 30,000 cells/well. After 12 h of culture in the growth medium, the cells were synchronized in serum-free medium (SFM) (DMEM:F12 supplemented with 0.42 g/mL bovine serum albumin, 1 mM FeSO4 and 2 mM L-glutamine) for 24 h and then shifted back to the full growth medium containing either gAd (Phoenix Secretomics, Burlingame, Calif.) at 50 ng/mL, individual peptides, or no test compounds for 24 h. At conclusion of proliferation assays, the cells were counted under the microscope with trypan-blue exclusion. Each experiment was performed in triplicate and repeated at least three times.
# AMPK = assay: Signaling analysis by Western blot: AMPK phosphorylation; type: cell-based
# Experimental: (§1) The analysis was done using MCF-7 and MDA-MB-231 breast cancer cells and in LN18 glioblastoma cells. The cells at 70-80% confluence were shifted to SFM for 24 h, then SFM was removed, the cultures were washed 2× with PBS, placed in normal growth medium for 1 h, and then treated with ADP 355-NH2 at 100 nM (MCF-7 cells) or 10 μM (MDA-MB-231 and LN 18 cells) concentration for 0-60 min, while gAd at 50 ng/mL was applied for 60 min only. Untreated cells were used as negative control. After the treatment, cells were lysed as previously described and 100 μg of proteins were analyzed by Western blot for the expression of phosphorylated (p) and total forms of several signaling molecules. Bartella V, et al. Cancer Res 2008, 68(12):4919-4927. Garofalo C, et al. Clin Cancer Res 2004, 10(10):6466-6475. The following primary antibodies (Abs) from Cell Signaling (Danvers, Mass.) were used: 1) pAMPK alpha (T172) D79.5E rabbit mAb 1: 750; 2) total AMPK alpha antibody rabbit mAb 1:1000 in; 3) p44/42 MAPK (T202/Y204) rabbit mAb 1:1000; 4) total 44/42 MAP kinase antibody rabbit mAb 1:1000; 5) pStat3 (Y705) D3A7 rabbit mAb 1: 500; 6) total Stat3 79D7 rabbit mAb 1:2000; 7) pAkt (Ser 473) rabbit mAb 1:1000; 8) total Akt rabbit mAb 1:1000; 9) AdipoR1 rabbit purified anti-serum 1:500 (Phoenix Secretomics). Protein loading was verified by evaluating the expression of either a constitutive enzyme glyceraldehyde-3-phosphate dehydrogenase (GAPDH) using 6C51 mAbs 1:1000 (Santa Cruz Biotechnology, CA, USA) or alpha-actin using the actin I-19 goat polyclonal Ab (Santa Cruz) 1: 200. The following secondary Abs (Santa Cruz) were used 1) donkey anti-goat IgG-HRP; 2) goat anti-mouse IgG-HRP; 3) goat anti-rabbit IgG-HRP, all applied at 1:1000 dilution.
# female CBA/J mice = assay: In vivo toxicity, bolus ip; details: for Kidney weight / Kidney weight relative to total weight (%) / Liver weight / Liver weight relative to total weight (%) / Spleen weight: day 5
# From the text: On day 5 the mice were killed by CO2 inhalation and the potential peptide elimination organs, the livers, spleens and kidneys were removed and weighed.
# [2] = tested on: MDA-MB-231 breast cancer cells; assay: Cell growth experiments, cell counting; type: cell-based; details: MDA-MB-231 cells
# Experimental: (§2) Biological activity of the peptides was first assessed using MCF-7 breast cancer cells that express AdipoR1. Arditi J D, Venihaki M, Karalis K P, Chrousos G P Horm Metab Res 2007, 39(1):9-13. The MCF-7 breast cancer cell line was obtained from ATCC (Manassas, Va.) and routinely grown in DMEM:F12 plus 5% calf serum (Cellgro Mediatech, Manassas, Va.) at 37° C., 5% CO2. For screening experiments, MCF-7 cells were plated in 24-well plates at the concentration of 30,000 cells/well. After 12 h of culture in the growth medium, the cells were synchronized in serum-free medium (SFM) (DMEM:F12 supplemented with […] bovine serum albumin, 1 mM FeSO4 and 2 mM L-glutamine) for 24 h and then shifted back to the full growth medium containing either gAd (Phoenix Secretomics, Burlingame, Calif.) at 50 ng/mL, individual peptides, or no test compounds for 24 h. At conclusion of proliferation assays, the cells were counted under the microscope with trypan-blue exclusion. Each experiment was performed in triplicate and repeated at least three times. ADP 25-β-AlaNH2, ADP 91-β-AlaNH2, ADP 157-β-AlaNH2, ADP 223-β-AlaNH2, ADP 289-β-AlaNH2 and ADP 355-β-AlaNH2 were solubilized at 65° C. for 30 min and were further purified by RP-HPLC and screened together with the individually synthesized adiponectin peptides at the exact concentration of 50 ng/mL.
# (§3) The effects of the selected peptide ADP 355-NH2 on cell proliferation were tested in breast cancer cell lines (MCF-7, MDA-MB-231) and in glioblastoma cells (LN18), all obtained from ATCC and routinely cultured as described previously. Otvos L, Jr., et al. European J Cancer 2011, 47(10):1578-1584. Riolfi M, et al. Brain Pathol 2010, 20(2):481-489. Bartucci M, et al. Cancer Res 2001, 61(18):6747-6754. The peptide was tested at 10 pM-100 μM concentrations under conditions described above under peptide screening.
# LN18 glioblastoma cells = assay: Cell growth experiments, cell counting; type: cell-based
# Experimental: as §2, §3
# [3] = Peptide stability in whole mouse blood; type: in vitro ADME; details: after 30 min at 37° C., mass spectroscopy
# Experimental: (§4) Sixty μg of ADP 355-NH2 were dissolved in 100 μL water, and 10 μL aliquots were mixed with 100 μL of freshly drawn mouse blood. After 30 min of incubation at 37° C. the cells were centrifuged at 10,000×g. Fifty μL serum was mixed with 50 μL phosphate buffered saline pH 6.8 (PBS), and the serum proteins were precipitated by addition of 45 μL aqueous 15% trichloroacetic acid (TCA) for 10 min at 4° C. After centrifugation at 12,000×g the supernatant was neutralized with 0.1 M aqueous sodium hydroxide and 0.5 μL of this solution was mixed with 0.5 μL α-cyano-4-hydroxycinnamic acid (4 mg/mL in 60% aqueous acetonitrile containing 0.1% TFA) as matrix on a sample plate. Analysis was performed on a MALDI time-of-flight tandem mass spectrometer (MALDITOF/TOF-MS, 4700 proteomic analyzer, Applied Biosystems, Weiterstadt, Germany). Additionally, the neutralized supernatant was loaded on a Jupiter C18 RP-HPLC column (4.6 mm internal diameter, 150 mm length, 5 μm particle size, 30 nm pore size; Phenomenex) that had previously been calibrated with known amounts of peptide ADP 355-NH2 dissolved in PBS. Absorbance was measured at 214 nm. Peptide ADP 355-NH2 was incubated at 37° C. with 25% aqueous mouse serum at a final concentration of 150 μg/mL. After 0, 15, 30, 60, 120, and 240 min 95 μL aliquots were mixed with 25 μL 15% aqueous TCA and were incubated for 10 min at 4° C. […]
# Akt = assay: Signaling analysis by Western blot: Akt; type: cell-based
# Experimental: as §1
# [4] = Peptide stability in mouse serum; type: in vitro ADME; details: 25% aqueous mouse serum, calculated from degradation rate in 25% aqueous serum, 37° C., data not shown
# Experimental: as §4
# STAT3 = assay: Signaling analysis by Western blot: STAT3 phosphorylation; type: cell-based; details: for STAT3 phosphorylation: 10 μM
# Experimental: as §1
# ERK1/2 = assay: Signaling analysis by Western blot: ERK1/2 phosphorylation; type: cell-based
# Experimental: as §1, with “Protein loading was verified by evaluating the expression of either a constitutive enzyme glyceraldehyde-3-phosphate dehydrogenase (GAPDH) using 6C51 mAbs 1:1000 (Santa Cruz Biotechnology, CA, USA) or alpha-actin using the actin I-19 goat polyclonal Ab (Santa Cruz) 1: 200. The following secondary Abs (Santa Cruz) were used 1) donkey anti-goat IgG-HRP; 2) goat anti-mouse IgG-HRP; 3) goat anti-rabbit IgG-HRP, all applied at 1:1000 dilution.” left out
# [5] = MDA-MB-231 cells, 10 μM, 0-60 min
# [6] = four days after ip administration, vs untreated
# [7] = LN 18 cells, compared with 1 μM
compound,measurement,setting,value
"CC[C@H](C)[C@H](NC(=O)[C@@H](N)CC(N)=O)C(=O)N1CCC[C@H]1C(=O)NCC(=O)N[C@@H](CC(C)C)C(=O)N[C@@H](Cc1ccc(O)cc1)C(=O)N[C@@H](Cc1ccc(O)cc1)C(=O)N[C@@H](Cc1ccccc1)C(=O)N[C@@H](C)C(=O)N[C@@H](Cc1ccc(O)cc1)C(=O)NCCC(N)=O [ADP 25-β-AlaNH2, Asn-Ile-Pro-Gly-Leu-Tyr-Tyr-Phe-Ala-Tyr-β-AlaNH2] (H-NIPGLYYFAY[βAla]-NH2; N-terminus assumed)",biological activity in cancer cell growth inhibition assays,[1]; 50 ng/mL,fully active
same,Cytostatic Activity of Original Peptide vs. gAd (% Increase),"[1]; MCF-7 cells, 50 ng/mL, relative to 50 ng/mL gAd (baseline)",11%
"CCC[C@H](NC(=O)[C@@H]1CCCN1C(=O)[C@@H](NC(=O)[C@H](N)CC(N)=O)[C@@H](C)CC)C(=O)N[C@@H](CC(C)C)C(=O)N[C@@H](Cc1ccc(O)cc1)C(=O)N[C@H](CO)C(=O)N[C@@H](Cc1ccccc1)C(=O)N[C@@H](C)C(=O)N[C@H](CO)C(N)=O [ADP 355-NH2, D-Asn-Ile-Pro-Nva-Leu-Tyr-D-Ser-Phe-Ala-D-Ser-NH2] (H-[dN]IP[Nva]LY[dS]FA[dS]-NH2)",AMPK modulation,"AMPK; LN18 cells, 10 μM, 0-60 min",did not modulate
same,phosphorylation of AMPK,"AMPK; MCF-7 cells, 100 nM, at 15 and 30 min",increased
same,AMPK activation,AMPK; [5],did not affect
same,Kidney weight,female CBA/J mice; 5 mg/kg bolus ip,0.30 g
same,Kidney weight relative to total weight (%),female CBA/J mice; 5 mg/kg bolus ip,1.6%
same,Liver weight,female CBA/J mice; 5 mg/kg bolus ip,1.02 g
same,Liver weight relative to total weight (%),female CBA/J mice; 5 mg/kg bolus ip,5.4%
same,Spleen weight,female CBA/J mice; 5 mg/kg bolus ip,0.07 g
same,Kidney weight,female CBA/J mice; 10 mg/kg bolus ip,0.29 g
same,Kidney weight relative to total weight (%),female CBA/J mice; 10 mg/kg bolus ip,1.6%
same,Liver weight,female CBA/J mice; 10 mg/kg bolus ip,1.09 g
same,Liver weight relative to total weight (%),female CBA/J mice; 10 mg/kg bolus ip,5.9%
same,Spleen weight,female CBA/J mice; 10 mg/kg bolus ip,0.06 g
same,Kidney weight,female CBA/J mice; 25 mg/kg bolus ip,0.35 g
same,Kidney weight relative to total weight (%),female CBA/J mice; 25 mg/kg bolus ip,1.7%
same,Liver weight,female CBA/J mice; 25 mg/kg bolus ip,1.24 g
same,Liver weight relative to total weight (%),female CBA/J mice; 25 mg/kg bolus ip,5.9%
same,Spleen weight,female CBA/J mice; 25 mg/kg bolus ip,0.07 g
same,Kidney weight,female CBA/J mice; 50 mg/kg bolus ip,0.31 g
same,Kidney weight relative to total weight (%),female CBA/J mice; 50 mg/kg bolus ip,1.7%
same,Liver weight,female CBA/J mice; 50 mg/kg bolus ip,1.07 g
same,Liver weight relative to total weight (%),female CBA/J mice; 50 mg/kg bolus ip,6.2%
same,Spleen weight,female CBA/J mice; 50 mg/kg bolus ip,0.07 g
same,spleen size compared with untreated control mice,female CBA/J mice; four days after ip administration,identical in size
same,increase of kidney size relative to total body weight,female CBA/J mice; [6],2%
same,increase of liver size relative to total body weight,female CBA/J mice; [6],8%
same,"signs of systemic toxicity (tremor, head tilt, reduced activity, squinting)","female CBA/J mice; up to 50 mg/kg ip bolus, observed for 4 days",no signs of systemic toxicity
same,cytostatic effect at maximal effective doses compared with gAd at 50 ng/mL,[2],greater cytostatic effects
same,effect on normal cell growth,[2]; 10 pM-100 μM,restricted normal cell growth in a dose-dependent manner
same,growth inhibition at 10 μM,[2]; compared with 1 μM,further activity increase
same,growth inhibition at 100 μM,[2]; compared with 1 μM,less inhibitory
same,cytostatic effect at maximal effective doses compared with gAd at 50 ng/mL,LN18 glioblastoma cells; LN18 cells,greater cytostatic effects
same,effect on normal cell growth,"LN18 glioblastoma cells; LN18 cells, 10 pM-100 μM",restricted normal cell growth in a dose-dependent manner
same,growth inhibition at 10 μM,LN18 glioblastoma cells; [7],further activity increase
same,growth inhibition at 100 μM,LN18 glioblastoma cells; [7],less inhibitory
same,concentration up to which the growth inhibitory activity was maintained,[1]; MCF-7 cells,up to 10 μM
same,cytostatic effect at maximal effective doses compared with gAd at 50 ng/mL,[1]; MCF-7 cells,greater cytostatic effects
same,peptide concentration at which the best growth inhibition was achieved,[1]; MCF-7 cells,100 nM
same,effect on normal cell growth,"[1]; MCF-7 cells, 10 pM-100 μM",restricted normal cell growth in a dose-dependent manner
same,growth inhibition at 10 pM-10 nM,"[1]; MCF-7 cells, compared with 100 nM",less effective
same,stability in whole mouse blood,[3],without noticeable degradation
same,total and phosphorylated levels of Akt,"Akt; LN18 cells, 10 μM, at 15-60 min",down-regulated
same,activation of Akt,"Akt; MCF-7 cells, 100 nM, 0-60 min",did not affect
same,Akt activation,Akt; [5],did not affect
same,half-life at 150 μg/mL,[4],1.25 h
same,STAT3 phosphorylation,"STAT3; LN18 cells, at 15-60 min",decreased
same,phosphorylation of STAT3,"STAT3; MCF-7 cells, 100 nM, at 15-60 min",increased
same,STAT3 phosphorylation,"STAT3; MDA-MB-231 cells, at 15 and 30 min",transiently increased
same,ERK1/2 phosphorylation,"ERK1/2; MCF-7 cells, 100 nM, at 60 min",decreased
same,ERK1/2 pathway,"ERK1/2; MDA-MB-231 cells, 10 μM, at 30 and 60 min",significantly inhibited
